{"source": "ChEMBL document CHEMBL4020815", "about": "(J Med Chem, 2017)", "key": {"[1]": {"biological_target": "T1, C-1-tetrahydrofolate synthase, cytoplasmic (Homo sapiens, UniProt P11586)", "T1 sequence (P11586 whole entry)": "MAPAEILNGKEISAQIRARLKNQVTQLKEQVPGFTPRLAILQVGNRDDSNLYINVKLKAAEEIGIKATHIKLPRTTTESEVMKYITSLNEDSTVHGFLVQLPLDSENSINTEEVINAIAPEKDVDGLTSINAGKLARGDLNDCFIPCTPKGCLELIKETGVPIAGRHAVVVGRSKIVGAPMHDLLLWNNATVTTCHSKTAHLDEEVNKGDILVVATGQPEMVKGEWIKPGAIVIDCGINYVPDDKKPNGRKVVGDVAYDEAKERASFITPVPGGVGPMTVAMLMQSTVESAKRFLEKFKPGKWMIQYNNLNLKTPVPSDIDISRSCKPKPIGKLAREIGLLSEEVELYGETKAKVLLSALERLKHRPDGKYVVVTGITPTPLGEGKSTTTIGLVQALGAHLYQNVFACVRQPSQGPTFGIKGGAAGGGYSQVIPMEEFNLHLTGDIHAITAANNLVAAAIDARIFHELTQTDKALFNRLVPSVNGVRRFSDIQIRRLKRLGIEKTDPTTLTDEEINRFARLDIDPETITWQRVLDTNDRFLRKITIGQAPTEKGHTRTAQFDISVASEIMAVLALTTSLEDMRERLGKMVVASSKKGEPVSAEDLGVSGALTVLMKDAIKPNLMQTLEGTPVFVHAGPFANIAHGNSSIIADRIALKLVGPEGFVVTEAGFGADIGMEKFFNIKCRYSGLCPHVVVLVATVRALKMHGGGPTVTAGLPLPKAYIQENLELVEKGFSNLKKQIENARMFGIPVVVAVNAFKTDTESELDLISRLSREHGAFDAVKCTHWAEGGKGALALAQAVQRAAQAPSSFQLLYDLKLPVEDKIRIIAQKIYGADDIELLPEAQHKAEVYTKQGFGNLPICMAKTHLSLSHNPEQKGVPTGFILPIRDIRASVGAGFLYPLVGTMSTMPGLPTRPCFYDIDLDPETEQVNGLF", "experiment": "Inhibition of MTHFD1 (unknown origin) using NADP/5,10-methylene THF as substrate after 30 mins by HPLC method"}, "[2]": {"biological_target": "T2, Bifunctional methylenetetrahydrofolate dehydrogenase/cyclohydrolase 2, mitochondrial (Homo sapiens, UniProt Q9H903)", "T2 sequence (Q9H903 whole entry)": "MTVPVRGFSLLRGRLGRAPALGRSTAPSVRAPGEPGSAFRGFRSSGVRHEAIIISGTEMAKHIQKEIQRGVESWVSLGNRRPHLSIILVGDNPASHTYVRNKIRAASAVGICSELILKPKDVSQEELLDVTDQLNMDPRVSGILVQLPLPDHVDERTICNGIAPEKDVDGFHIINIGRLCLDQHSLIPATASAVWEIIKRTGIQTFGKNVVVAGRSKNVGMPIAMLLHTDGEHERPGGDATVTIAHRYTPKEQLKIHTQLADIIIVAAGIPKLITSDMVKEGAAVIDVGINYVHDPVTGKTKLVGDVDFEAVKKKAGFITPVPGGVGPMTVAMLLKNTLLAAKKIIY", "experiment": "Inhibition of MTHFD2L (unknown origin) using NAD/5,10-methylene THF as substrate after 2 hrs by HPLC method"}, "[3]": {"experiment": "Antiproliferative activity against human MDA-MB-231met2 cells by Alamar blue assay", "type": "functional, cell-based"}, "Mus musculus [4]": {"test_system": "Mus musculus", "experiment": "In vivo inhibition of AICARFT in tumor of athymic nude mouse xenografted with human MDA-MB-231met2 cells assessed as increase in AICAr levels at 30 mg/kg, bid administered via oral gavage for 22 days relative to control", "type": "functional"}, "Mus musculus [5]": {"test_system": "Mus musculus", "experiment": "In vivo inhibition of AICARFT in tumor of athymic nude mouse xenografted with human MDA-MB-231met2 cells assessed as increase in ZMP levels at 60 mg/kg, bid administered via oral gavage for 22 days relative to control", "type": "functional"}}}
{"smiles": "O=c1[nH]ccc2cc(F)c(NS(=O)(=O)c3ccc(N4CC[C@@H](O)C4)s3)cc12", "values": [{"measurement": "IC50", "setting": "[1]", "value": "> 100", "unit": "µM"}, {"measurement": "IC50", "setting": "[2]", "value": "> 100", "unit": "µM"}, {"measurement": "IC50", "setting": "[3]", "value": 0.085, "unit": "µM"}, {"measurement": "fold change (FC)", "setting": "Mus musculus [4]", "value": 30}, {"measurement": "fold change (FC)", "setting": "Mus musculus [5]", "value": 16}]}
